# What was measured:
# [1] = tested on: UBP43± and UBP43−/− bone marrow cells; test: Liquid bone marrow cell culture, Trypan blue dye exclusion assay; type: cell-based, mice; conditions: 10 ng/ml, 48 hours
# Protocol: (a) Bone marrow cells isolated from UBP43+/+ and UBP43−/− mice were cultured in vitro in the presence or the absence of INFβ (100 units/ml) for 48 hours. TUNEL assay was performed to study the percentage of apoptosis cells. […] Cells were then subjected to Trypan blue dye exclusion assay. Each data point represents the mean of three independent experiments. Error bar represents standard deviation about the mean.
# In vitro bone marrow cell culture.
# TNFα and the type II IFN-IFNγ are commonly used to study bone marrow cell growth and apoptosis and in the analysis of various knockout mouse models.
# [2] = tested on: UBP43+/+ and UBP43−/− mice; test: Viability of mice after daily ip poly(I—C) injection; type: in vivo; conditions: daily ip poly(I—C) 5 μg/g body weight
# Protocol: (§1) (a) Seven mice of each group (UBP43 +/+ and UBP43−/−) were ip injected daily with poly(I—C). Viability was monitored daily. (b) UBP43+/+ and UBP43−/− mice (n=4 for each group) were ip injected daily with poly(I—C). The total number of white blood cells (WEC) in the peripheral blood was counted daily after each poly(I—C) injection. (c) UBP43+/+ and UBP43−/− mice (n=5 for each group) were either left untreated or were ip injected with poly(I—C) 24 h prior to bone marrow extraction. Bone marrow cells were counted in control and poly(I—C) injected group of mice (two femurs from each mouse).
# (§2) Poly(I—C) injection and hematopoietic cell counting: Poly(I—C) (Sigma) was dissolved in phosphate buffered saline and intraperitoneally (ip) injected to mice at 5 μg/g body weight (gbw). Blood and bone marrow nucleated cells were counted in Turk solution (3% acetic acid and 0.01% crystal violet in H2O).
# (§3) UBP43-null mice are sensitive to potent IFN-inducer poly(I—C). Injection with synthetic double stranded RNA-polyinosinic acid-polycytidylic acid (poly(I—C)) has been commonly used to induce endogenous IFN production in mice. […] There were dramatic decreases (over 90%) in the total number of white blood cells in peripheral blood and nucleated cells in bone marrow of UBP43−/− mice.
# [3] = tested on: UBP43+/+ and UBP43−/− mice; test: Hematopoietic cell counting (peripheral white blood cells, bone marrow nucleated cells) after poly(I—C) injection; type: in vivo
# Protocol: as §1, §2, §3
# [4] = tested on: hematopoietic cells transplanted from UBP43+/+ or UBP43−/− mice; test: Bone marrow transplantation, flow cytometric analysis of CD45.2+ donor blood cells before and after poly(I—C) injection; type: in vivo
# Excerpt: (a) Hematopoietic cells transplanted from UBP43−/− mice to UBP43+/+ congenic strain mice are hypersensitive to poly(I—C) injection. Bone marrow cells (CD45.2+) from individual UBP43+/+ and UBP43−/− mice (n=4 for each group) were isolated and transplanted to lethally irradiated congenic strain mice (CD45.2−). Six months after the transplantation, flow cytometric analysis was done to determine the relative amount of peripheral blood cells contributed from the donor or recipient mice based on CD45-2 immunostaining before and after poly(I—C) injection (48 h). Flow cytometric analysis results from one representative mouse transplanted with UBP43+/+ or UBP43−/− bone marrow are presented. (b) UBP43−/− bone marrow cells are hypersensitive to IFNβ treatment. Bone marrow cells from UBP43+/+ and UBP43−/− mice were cultured at 2×10^4 cells/ml in CFU assay medium in the presence of various concentrations of IFNβ. Total colony number was counted after 12 days of culture. Results of a single representative experiment of two independent experiments are shown. […]
# Bone marrow transplantation. […] The appearance of donor origin blood cells (CD45.2+) was detected by flow cytometric analysis with […] (FITC) conjugated CD45.2 antibodies (BD Biosciences). […]
Substance,difference in cell death between UBP43± cells and UBP43−/− cells [1],viability ([2]; UBP43+/+ mice (n=7)),time within which all mice died post treatment ([2]; UBP43−/− mice (n=7)) [h],"decrease in number of total peripheral white blood cells ([3]; UBP43+/+ mice, ip poly(I—C)) [%]","decrease in total bone marrow nucleated cells ([3]; UBP43+/+ mice, ip poly(I—C) 24 h prior to bone marrow extraction) [%]","decrease in total number of white blood cells in peripheral blood ([3]; UBP43−/− mice, ip poly(I—C))","decrease in nucleated cells in bone marrow ([3]; UBP43−/− mice, ip poly(I—C) 24 h prior to bone marrow extraction)","relative amount of CD45.2+ cells in the peripheral blood ([4]; UBP43+/+ donor, 48 h after poly(I—C) injection)","blood cells of the UBP43−/− genotype (CD45.2+) ([4]; UBP43−/− donor, 48 hours post administration, 79% before dosing) [%]"
"IFNγ: type II IFN, proapoptotic cytokine (Peprotech)",did not cause a significant difference,,,,,,,,
TNF-α,did not cause a significant difference,,,,,,,,
polyinosinic acid-polycytidylic acid [poly(I—C)],,survived the course of treatment,≤ 72,20,30,over 90%,over 90%,did not change,12

# — patent US20040209315A1, “Methods to identify agents that increase or decrease UBP43 activity and methods for use of such agents” (priority 2003, published 2004)
